Some test systems named below: MDA-MB-231; HT-29; UO-31; HL-60; A549; MDA-MB-435; SN12C; EKVX; T47D; OVCAR-8; COLO 205; SF-268; KM12; SF-539; RPMI-8226; 786-0.
Assay in all cases: NCI tumour cell line growth inhibition, 48 h

Structures are written as SMILES.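 Following 48 hours of exposure in 96-well plates, responses at five concentrations were used to interpolate endpoints linearly. Abbreviation: GI50, concentration required for 50% inhibition of growth.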 Active and inactive are the calls of the source. Cut-off read from the data, not from the text of the source: active = GI50 up to about 1.1 µM and inactive = higher.

On to `O=C(C=P(c1ccccc1)(c1ccccc1)c1ccccc1)c1ccccc1-c1ccccc1C(=O)C=P(c1ccccc1)(c1ccccc1)c1ccccc1`, for which the GI50 with MDA-MB-231 is 0.0215 µM (active); in the assay with HT-29 it was 0.0236 µM (active); in the assay with UO-31 it was 0.228 µM (active); in the assay with HL-60, < 0.01 µM (active); in the assay with A549, 0.0128 µM (active); in the assay on MDA-MB-435, 0.0267 µM (active). The GI50 with SN12C is 0.0193 µM (active); with EKVX, 0.185 µM (active); with T47D it was < 0.01 µM (active); with OVCAR-8, < 0.01 µM (active); in the assay on COLO 205, 0.0103 µM (active); with SF-268, 0.0351 µM (active). The GI50 in the assay with KM12 is < 0.01 µM (active); in the assay on SF-539, 0.0328 µM (active); in the assay on RPMI-8226 it was < 0.01 µM (active); in the assay with 786-0 it was 0.0344 µM (active).
For the molecule `CCN(CC)CC[S+]([O-])c1c2cc(OC)ccc2nc2ccc(OC)cc12` (configuration not stated), the GI50 with MDA-MB-231 was 13.6 µM (inactive); in the assay on HT-29, 3.44 µM (inactive); in the assay with UO-31 it was 2.25 µM (inactive); with HL-60 it was 3.67 µM (inactive); in the assay on A549, 24.9 µM (inactive); in the assay with MDA-MB-435, 9.46 µM (inactive). The GI50 is 4.49 µM (inactive) in the assay on SN12C; 15 µM (inactive) in the assay with EKVX; 1.95 µM (inactive) in the assay with T47D; 3.83 µM (inactive) with OVCAR-8; 1.88 µM (inactive) in the assay with COLO 205; 7.93 µM (inactive) with SF-268. Moreover, the GI50 with KM12 is 20.6 µM (inactive); in the assay on SF-539, 2.32 µM (inactive); with RPMI-8226 it was 2.63 µM (inactive); with 786-0, 2.02 µM (inactive).
Take `COc1cc2oc(-c3ccc4c(c3)OCO4)c(OC)c(=O)c2c(OC)c1O`: the GI50 in the assay on MDA-MB-231 is 51.6 µM (inactive); in the assay on HT-29, > 100 µM (inactive); in the assay on UO-31 it was 53 µM (inactive); with HL-60, 28.7 µM (inactive); with A549, 48.1 µM (inactive); in the assay on MDA-MB-435 it was 70.3 µM (inactive). The GI50 in the assay on SN12C was 71.8 µM (inactive); in the assay with EKVX, 37.6 µM (inactive); with T47D it was 31.5 µM (inactive); with OVCAR-8 it was 32.8 µM (inactive); in the assay with COLO 205, > 100 µM (inactive); with SF-268, 27.9 µM (inactive). Also, the GI50 is > 100 µM (inactive) with KM12, > 100 µM (inactive) in the assay on SF-539 and 10.9 µM (inactive) in the assay on 786-0.
For `O=C(O)CC(NC(=O)/C(=C/c1ccccc1O)NC(=O)c1ccccc1)C(=O)O` (configuration not stated), the GI50 in the assay with MDA-MB-231 was > 100 µM (inactive); in the assay with HT-29, 80.7 µM (inactive); with UO-31 it was 43.4 µM (inactive); with HL-60, 25.8 µM (inactive); in the assay on A549 it was > 100 µM (inactive); with MDA-MB-435 it was 85.9 µM (inactive). For the same molecule, the GI50 with SN12C was > 100 µM (inactive); in the assay on EKVX, 83.9 µM (inactive); in the assay on T47D it was 79.4 µM (inactive); in the assay with OVCAR-8, > 100 µM (inactive); with COLO 205, > 100 µM (inactive); with KM12 it was > 100 µM (inactive). The GI50 with SF-539 is > 100 µM (inactive); in the assay on RPMI-8226, 82.6 µM (inactive); with 786-0, > 100 µM (inactive).
Take `O=S(=O)(/C=C/C=C/[S+]([O-])c1ccccc1)c1ccccc1` (configuration not stated): the GI50 was 2.81 µM (inactive) in the assay with MDA-MB-231; 2.21 µM (inactive) with HT-29; 2.27 µM (inactive) with UO-31; 0.327 µM (active) in the assay with HL-60; > 10 µM (inactive) in the assay on A549; 2.07 µM (inactive) with MDA-MB-435. In addition, the GI50 is 2 µM (inactive) with SN12C; > 10 µM (inactive) in the assay on EKVX; 2.02 µM (inactive) with T47D; 1.7 µM (inactive) with OVCAR-8; 1.76 µM (inactive) with COLO 205; 3.13 µM (inactive) with SF-268. Further, the GI50 is > 2.63 µM (inactive) in the assay with KM12, 8.09 µM (inactive) in the assay on SF-539, 0.875 µM (active) in the assay on RPMI-8226 and 0.625 µM (active) with 786-0.
On to `CCCCOC(=O)C1CN2C(=NC1(C(F)(F)F)C(F)(F)F)Sc1ccccc12` (configuration not stated), for which the GI50 was > 100 µM (inactive) in the assay with MDA-MB-231; 22.5 µM (inactive) in the assay on HT-29; 19.2 µM (inactive) with UO-31; 16.6 µM (inactive) with HL-60; 40.5 µM (inactive) with A549; > 10 µM (inactive) with MDA-MB-435. For the same molecule, the GI50 in the assay on SN12C was 98.4 µM (inactive); with EKVX it was 37.2 µM (inactive); in the assay on T47D it was 16.8 µM (inactive); in the assay on OVCAR-8 it was 43.6 µM (inactive); in the assay with COLO 205 it was 31.8 µM (inactive); in the assay on SF-268, 33.8 µM (inactive). Also, the GI50 in the assay on KM12 was 27.2 µM (inactive); in the assay on SF-539 it was 44.1 µM (inactive); in the assay with RPMI-8226 it was 26.1 µM (inactive); with 786-0, 64.3 µM (inactive).
For `COc1cc2c(c(OC)c1OC)C(=O)[C@H]1OC(=O)N[C@@H]21`, the GI50 with MDA-MB-231, in the assay with HT-29, with UO-31, in the assay on HL-60, with A549 and in the assay with MDA-MB-435 was > 100 µM (inactive) in each case. The GI50 in the assay with SN12C, with T47D, in the assay with OVCAR-8, with COLO 205, in the assay with SF-268 and in the assay on KM12 was > 100 µM (inactive) each time. Moreover, the GI50 in the assay on SF-539, in the assay with RPMI-8226 and with 786-0 was > 100 µM (inactive) in each case.
For `N#CC1=C(S)N(C2OC(CO)C(O)C(O)C2O)C(c2ccccc2)=CC1c1ccco1` (configuration not stated), the GI50 is 54.5 µM (inactive) with MDA-MB-231; > 100 µM (inactive) with HT-29; 82.2 µM (inactive) with UO-31; > 100 µM (inactive) with HL-60; 46.1 µM (inactive) with A549; > 100 µM (inactive) in the assay on MDA-MB-435. The GI50 is 40.5 µM (inactive) in the assay on SN12C; 4.36 µM (inactive) with T47D; 40.4 µM (inactive) in the assay with OVCAR-8; > 10 µM (inactive) in the assay on COLO 205; > 100 µM (inactive) with SF-268; 41.9 µM (inactive) with KM12. Also, the GI50 is 35.2 µM (inactive) in the assay on SF-539, 23.2 µM (inactive) with RPMI-8226 and 38 µM (inactive) in the assay with 786-0.
With `COc1ccc(/C=C2\CCC(CNc3cc(C)on3)C2=O)cc1` (configuration not stated), the GI50 is > 82 µM (inactive) in the assay with MDA-MB-231; > 100 µM (inactive) with HT-29; > 93.1 µM (inactive) in the assay with UO-31; > 21.5 µM (inactive) with HL-60; > 88.7 µM (inactive) with A549; > 100 µM (inactive) in the assay on MDA-MB-435. Also, the GI50 is > 100 µM (inactive) in the assay on SN12C; > 100 µM (inactive) in the assay with EKVX; 33 µM (inactive) with T47D; > 100 µM (inactive) in the assay with OVCAR-8; > 100 µM (inactive) in the assay on COLO 205; > 70 µM (inactive) with SF-268. Besides, the GI50 in the assay with KM12, in the assay with SF-539, in the assay with RPMI-8226 and in the assay on 786-0 was > 100 µM (inactive) in each case.
As for `CC(=O)OCC1OC(n2c3c(cc(C#N)c2=O)CCCCCC3)C(OC(C)=O)C(OC(C)=O)C1OC(C)=O` (configuration not stated), the GI50 in the assay with MDA-MB-231, with HT-29, with UO-31, in the assay on HL-60, with A549 and in the assay with MDA-MB-435 was > 100 µM (inactive) throughout. The GI50 is > 100 µM (inactive) in the assay on SN12C; 22.7 µM (inactive) in the assay with T47D; > 100 µM (inactive) with OVCAR-8; > 100 µM (inactive) with COLO 205; > 100 µM (inactive) with SF-268; > 100 µM (inactive) in the assay on KM12. Besides, the GI50 with SF-539, with RPMI-8226 and in the assay with 786-0 was > 100 µM (inactive) in each case.
On to `NC(=O)c1cc2ccccc2o/c1=N/O`, for which the GI50 was > 100 µM (inactive) in the assay on MDA-MB-231; > 100 µM (inactive) in the assay with HT-29; 38.7 µM (inactive) in the assay on UO-31; 75.2 µM (inactive) with HL-60; 78.5 µM (inactive) with A549; 54.1 µM (inactive) with MDA-MB-435. For the same molecule, the GI50 with SN12C was > 100 µM (inactive); in the assay with EKVX, 32.2 µM (inactive); in the assay on T47D, > 100 µM (inactive); in the assay with OVCAR-8, > 100 µM (inactive); with COLO 205, > 100 µM (inactive); with SF-268, > 100 µM (inactive). Also, the GI50 in the assay on KM12, with SF-539, with RPMI-8226 and in the assay with 786-0 was > 100 µM (inactive) throughout.
As for `c1ccc(CN2C3C4N(Cc5ccccc5)C2C2N(Cc5ccccc5)C(C(N2Cc2ccccc2)N4Cc2ccccc2)N3Cc2ccccc2)cc1`, the GI50 in the assay with MDA-MB-231, with HT-29, in the assay on HL-60, with A549, with MDA-MB-435 and with SN12C was > 100 µM (inactive) each time. Also, the GI50 in the assay with EKVX, with T47D, with OVCAR-8, in the assay on COLO 205, in the assay with SF-268 and with KM12 was > 100 µM (inactive) throughout. The GI50 in the assay with SF-539, with RPMI-8226 and in the assay with 786-0 was > 100 µM (inactive) throughout.
On to `Nc1ccccc1.O=C(O)C(C(F)(F)F)C(F)(F)F`, for which the GI50 in the assay on MDA-MB-231, in the assay on HT-29, with UO-31, in the assay on HL-60, in the assay on A549 and in the assay with MDA-MB-435 was > 100 µM (inactive) each time. The GI50 with SN12C, in the assay with EKVX, with T47D, in the assay with OVCAR-8, in the assay on COLO 205 and with SF-268 was > 100 µM (inactive) in each case. Also, the GI50 with KM12 was 71.8 µM (inactive); with SF-539, > 100 µM (inactive); in the assay on RPMI-8226, > 100 µM (inactive); in the assay with 786-0, > 100 µM (inactive).

The record behind these values is ChEMBL document CHEMBL1201862, “PubChem BioAssay data set” (2004).
